# Values quoted from earlier work, collected in patent US5627200A, “β3 -Adrenoceptor agonists and antagonists for the treatment of intestinal motility disorders, depression, prostate disease and dyslipidemia” (Pfizer Inc, priority 1994, dated 1997).
# Experiments:
# [1] = system: rodent models of depression; settings: reported in Europ. J. Pharm., 219, 193 (1992)
# [2] = system: genetic animal models of obesity and diabetes
Structure (SMILES),activity in rodent models of depression [1],plasma fatty acids [2],plasma triglycerides [2]
"CCOC(=O)COc1ccc2c(c1)C[C@@H](NC[C@H](O)c1cccc(Cl)c1)CC2.Cl [N-[(2S)-7-carbethoxymethoxy-1,2,3,4-tetrahydronaphth-2-yl]-(2R)-2-hydroxy-2-(3-chlorophenyl)-ethanamine hydrochloride]",demonstrate activity in rodent models of depression,,
COC(=O)COc1ccc(CC(C)NCC(O)c2cccc(Cl)c2)cc1 (stereo not drawn) [N-[2-(4-carbomethoxymethoxyphenyl)-1-methylethyl]-2-hydroxy-2-(3-chlorophenyl)ethanamine],,reduces,reduces
